What follows are compounds tested against T1, Recombinant human liver GK1 (GST-GK) (Homo sapiens, UniProt P35557) (assay: Glucokinase in vitro assay (G6PDH-coupled NADH generation, OD340)). Settings: 30 uM test compound, 5 mM D-glucose.
T1 construct: made in house; host or cells: E. coli
T1 sequence (P35557 1-466 isoform P35557-2): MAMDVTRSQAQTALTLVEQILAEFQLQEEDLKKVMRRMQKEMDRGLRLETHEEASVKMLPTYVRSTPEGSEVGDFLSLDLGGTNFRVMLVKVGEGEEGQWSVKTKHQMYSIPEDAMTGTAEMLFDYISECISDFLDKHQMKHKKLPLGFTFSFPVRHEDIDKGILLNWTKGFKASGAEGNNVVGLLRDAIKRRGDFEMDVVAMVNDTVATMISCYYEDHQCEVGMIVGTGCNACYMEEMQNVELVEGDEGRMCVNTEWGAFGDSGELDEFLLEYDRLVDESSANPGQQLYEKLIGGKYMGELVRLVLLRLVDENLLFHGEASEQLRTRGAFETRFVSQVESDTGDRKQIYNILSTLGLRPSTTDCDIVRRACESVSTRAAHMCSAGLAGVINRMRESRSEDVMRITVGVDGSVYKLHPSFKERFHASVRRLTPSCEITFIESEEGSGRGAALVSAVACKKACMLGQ
Format: biochemical
Protocol: Glucokinase In Vitro Assay Protocol: Glucokinase (GK) was assayed by coupling the production of glucose-6-phosphate to the generation of NADH with glucose-6-phosphate dehydrogenase (G6PDH, 0.75-1 k units/mg; Boehringer Mannheim, Indianapolis, Ind.) from Leuconostoc mesenteroides as the coupling enzyme (Scheme 2):
Recombinant human liver GK1 was expressed in E. coli as a glutathione S-transferase fusion protein (GST-GK) [Liang et al, 1995] and was purified by chromatography over a glutathione-Sepharose 4B affinity column using the procedure provided by the manufacturer (Amersham Pharmacia Biotech, Piscataway, N.J.).
The assay was conducted at 30° C. in a flat bottom 96-well tissue culture plate from Costar (Cambridge, Mass.) with a final incubation volume of 120 μL. The incubation reaction contained the following: 25 mM Hepes buffer (pH 7.1), 25 mM KCl, 5 mM D-glucose, 1 mM ATP, 1.8 mM NAD, 2 mM MgCl2, 1 μM sorbitol-6-phosphate, 1 mM dithiothreitol, test drug or 10% DMSO, ˜7 units/ml G6PDH, and GK (see below). All organic reagents were >98% pure and were from Boehringer Mannheim with the exceptions of D-glucose and Hepes which were from Sigma Chemical Co, St Louis, Mo. Test compounds were dissolved in DMSO and were added to the incubation reaction minus GST-GK in a volume of 12 μL to yield a final DMSO concentration of 10%. This mix was pre-incubated in the temperature controlled chamber of a SPECTRAmax 250 microplate spectrophotometer (Molecular Devices Corporation, Sunnyvale, Calif.) for 10 minutes to allow temperature equilibrium and then the reaction was started by the addition of 20 μL GST-GK.
After addition of enzyme, the increase in optical density (OD) at 340 nm was monitored spectrophotometrically to determine the rate of change (OD340 per min). The GK activity (OD340/min) in control wells (10% DMSO minus GK activators) was compared with the activity in wells containing test GK activators, and the concentration of activator that produced a 50% increase in the activity of GK, i.e., the SC1.5, was calculated. The table below provides the in vitro glucokinase activity for the compounds in the Examples: […]

SMILES	fold activation @ 30 uM [fold]
CC(C)(O)Cn1ccc(NC(=O)[C@@H](CC2CCCC2)n2ncc(Oc3ccccc3C3CCCC3)cc2=O)n1 [Example 22B, (R)-3-Cyclopentyl-2-[4-(2-cyclopentyl-phenoxy)-6-oxo-6H-pyridazin-1-yl]-N-[1-(2-hydroxy-2-methyl-propyl)-1H-pyrazol-3-yl]-propionamide]	1.22
CC(C)(O)Cn1ccc(NC(=O)[C@@H](CC2CCCC2)n2ncc(Oc3ccccc3S(C)(=O)=O)cc2=O)n1 [Example 30B, (R)-3-Cyclopentyl-N-[1-(2-hydroxy-2-methyl-propyl)-1H-pyrazol-3-yl]-2-[4-(2-methanesulfonyl-phenoxy)-6-oxo-6H-pyridazin-1-yl]-propionamide]	1.16

Same assay, conditions: 5 mM D-glucose, 30° C., pH 7.1, 10% DMSO

SMILES	SC1.5 average (concentration of activator that produced a 50% increase in the activity of GK) [µM]
CC(C)(O)Cn1ccc(NC(=O)[C@@H](CC2CCCC2)n2ncc(Oc3ccccc3C3CCCC3)cc2=O)n1 [Example 22B, (R)-3-Cyclopentyl-2-[4-(2-cyclopentyl-phenoxy)-6-oxo-6H-pyridazin-1-yl]-N-[1-(2-hydroxy-2-methyl-propyl)-1H-pyrazol-3-yl]-propionamide]	> 30
CC(C)(O)Cn1ccc(NC(=O)C(CC2CCCC2)n2ncc(Oc3ccccc3-c3ccccc3)cc2=O)n1 (stereo not drawn) [Example 23, 2-[4-(Biphenyl-2-yloxy)-6-oxo-6H-pyridazin-1-yl]-3-cyclopentyl-N-[1-(2-hydroxy-2-methyl-propyl)-1H-pyrazol-3-yl]-propionamide]	0.868
Cc1ccccc1Oc1cnn([C@@H](CC2CCCC2)C(=O)Nc2ccn(CC(C)(C)O)n2)c(=O)c1 [Example 24A, (S)-3-Cyclopentyl-N-[1-(2-hydroxy-2-methyl-propyl)-1H-pyrazol-3-yl]-2-(6-oxo-4-o-tolyloxy-6H-pyridazin-1-yl)-propionamide]	0.1
Cc1ccccc1Oc1cnn([C@H](CC2CCCC2)C(=O)Nc2ccn(CC(C)(C)O)n2)c(=O)c1 [Example 24B, (R)-3-Cyclopentyl-N-[1-(2-hydroxy-2-methyl-propyl)-1H-pyrazol-3-yl]-2-(6-oxo-4-o-tolyloxy-6H-pyridazin-1-yl)-propionamide]	5.88
Cc1ncccc1Oc1cnn(C(CC2CCCC2)C(=O)Nc2ccn(CC(C)(C)O)n2)c(=O)c1 (stereo not drawn) [Example 25, 3-Cyclopentyl-N-[1-(2-hydroxy-2-methyl-propyl)-1H-pyrazol-3-yl]-2-[4-(2-methyl-pyridin-3-yloxy)-6-oxo-6H-pyridazin-1-yl]-propionamide]	1.773
CC(C)(O)Cn1ccc(NC(=O)C(CC2CCCC2)n2ncc(Oc3ccccc3N3CCCC3)cc2=O)n1 (stereo not drawn) [Example 26, 3-Cyclopentyl-N-[1-(2-hydroxy-2-methyl-propyl)-1H-pyrazol-3-yl]-2-[6-oxo-4-(2-pyrrolidin-1-yl-phenoxy)-6H-pyridazin-1-yl]-propionamide]	0.196
CC(C)(O)Cn1ccc(NC(=O)[C@H](CC2CCCC2)n2ncc(Oc3ccccc3N3CCCC3)cc2=O)n1 [Example 26A, (S)-3-Cyclopentyl-N-[1-(2-hydroxy-2-methyl-propyl)-1H-pyrazol-3-yl]-2-[6-oxo-4-(2-pyrrolidin-1-yl-phenoxy)-6H-pyridazin-1-yl]-propionamide]	0.102
CC(C)(O)Cn1ccc(NC(=O)[C@@H](CC2CCCC2)n2ncc(Oc3ccccc3N3CCCC3)cc2=O)n1 [Example 26B, (R)-3-Cyclopentyl-N-[1-(2-hydroxy-2-methyl-propyl)-1H-pyrazol-3-yl]-2-[6-oxo-4-(2-pyrrolidin-1-yl-phenoxy)-6H-pyridazin-1-yl]-propionamide]	26.027
CC(C)(O)Cn1ccc(NC(=O)C(CC2CCCC2)n2ncc(Oc3ccccc3N3CCCCC3)cc2=O)n1 (stereo not drawn) [Example 27, 3-Cyclopentyl-N-[1-(2-hydroxy-2-methyl-propyl)-1H-pyrazol-3-yl]-2-[6-oxo-4-(2-piperidin-1-yl-phenoxy)-6H-pyridazin-1-yl]-propionamide]	2.385
CC(C)(O)Cn1ccc(NC(=O)C(CC2CCCC2)n2ncc(Oc3cccnc3)cc2=O)n1 (stereo not drawn) [Example 28, 3-Cyclopentyl-N-[1-(2-hydroxy-2-methyl-propyl)-1H-pyrazol-3-yl]-2-[6-oxo-4-(pyridin-3-yloxy)-6H-pyridazin-1-yl]-propionamide]	1.925
CC(C)(O)Cn1ccc(NC(=O)[C@H](CC2CCCC2)n2ncc(Oc3ccccc3C#N)cc2=O)n1 [Example 29A, (S)-2-[4-(2-Cyano-phenoxy)-6-oxo-6H-pyridazin-1-yl]-3-cyclopentyl-N-[1-(2-hydroxy-2-methyl-propyl)-1H-pyrazol-3-yl]-propionamide]	0.159
CC(C)(O)Cn1ccc(NC(=O)[C@@H](CC2CCCC2)n2ncc(Oc3ccccc3C#N)cc2=O)n1 [Example 29B, (R)-2-[4-(2-Cyano-phenoxy)-6-oxo-6H-pyridazin-1-yl]-3-cyclopentyl-N-[1-(2-hydroxy-2-methyl-propyl)-1H-pyrazol-3-yl]-propionamide]	11.185
CC(C)(O)Cn1ccc(NC(=O)C(CC2CCCC2)n2ncc(Oc3ccccc3S(C)(=O)=O)cc2=O)n1 (stereo not drawn) [Example 30, 3-Cyclopentyl-N-[1-(2-hydroxy-2-methyl-propyl)-1H-pyrazol-3-yl]-2-[4-(2-methanesulfonyl-phenoxy)-6-oxo-6H-pyridazin-1-yl]-propionamide]	2.975
CC(C)(O)Cn1ccc(NC(=O)[C@H](CC2CCCC2)n2ncc(Oc3ccccc3S(C)(=O)=O)cc2=O)n1 [Example 30A, (S)-3-Cyclopentyl-N-[1-(2-hydroxy-2-methyl-propyl)-1H-pyrazol-3-yl]-2-[4-(2-methanesulfonyl-phenoxy)-6-oxo-6H-pyridazin-1-yl]-propionamide]	1.566
CC(C)(O)Cn1ccc(NC(=O)[C@@H](CC2CCCC2)n2ncc(Oc3ccccc3S(C)(=O)=O)cc2=O)n1 [Example 30B, (R)-3-Cyclopentyl-N-[1-(2-hydroxy-2-methyl-propyl)-1H-pyrazol-3-yl]-2-[4-(2-methanesulfonyl-phenoxy)-6-oxo-6H-pyridazin-1-yl]-propionamide]	> 30
CC(C)(O)Cn1ccc(NC(=O)C(CC2CCCC2)n2ncc(Oc3cccc(F)c3F)cc2=O)n1 (stereo not drawn) [Example 31, 3-Cyclopentyl-2-[4-(2,3-difluoro-phenoxy)-6-oxo-6H-pyridazin-1-yl]-N-[1-(2-hydroxy-2-methyl-propyl)-1H-pyrazol-3-yl]-propionamide]	0.209
CC(C)(O)Cn1ccc(NC(=O)[C@H](CC2CCCC2)n2ncc(Oc3cccc(F)c3F)cc2=O)n1 [Example 31A, (S)-3-Cyclopentyl-2-[4-(2,3-difluoro-phenoxy)-6-oxo-6H-pyridazin-1-yl]-N-[1-(2-hydroxy-2-methyl-propyl)-1H-pyrazol-3-yl]-propionamide]	0.18
CC(C)(O)Cn1ccc(NC(=O)[C@@H](CC2CCCC2)n2ncc(Oc3cccc(F)c3F)cc2=O)n1 [Example 31B, (R)-3-Cyclopentyl-2-[4-(2,3-difluoro-phenoxy)-6-oxo-6H-pyridazin-1-yl]-N-[1-(2-hydroxy-2-methyl-propyl)-1H-pyrazol-3-yl]-propionamide]	15.901
CC(C)(O)Cn1ccc(NC(=O)C(CC2CCCC2)n2ncc(Oc3ccc(F)cc3F)cc2=O)n1 (stereo not drawn) [Example 32, 3-Cyclopentyl-2-[4-(2,4-difluoro-phenoxy)-6-oxo-6H-pyridazin-1-yl]-N-[1-(2-hydroxy-2-methyl-propyl)-1H-pyrazol-3-yl]-propionamide]	0.745
